Read-outs that look alike come from different tables or passages of the source.
Experiments:
PARG = PARG (Homo sapiens, UniProt Q86W56); assay: Biochemical assay (PARG, TFMU-ADPr substrate)
HCC1806 = assay: Cell viability assay (CellTiter-Glo); format: cell-based, Human; conditions: HCC1806, 7 days, CellTiter-Glo, read-out: IC50 (nM) in cell viability assay
[1] = 4 nM PARG, 66.2 uM TFMU-ADPr, 3 min at room temperature

Sequence of PARG (Q86W56 whole entry): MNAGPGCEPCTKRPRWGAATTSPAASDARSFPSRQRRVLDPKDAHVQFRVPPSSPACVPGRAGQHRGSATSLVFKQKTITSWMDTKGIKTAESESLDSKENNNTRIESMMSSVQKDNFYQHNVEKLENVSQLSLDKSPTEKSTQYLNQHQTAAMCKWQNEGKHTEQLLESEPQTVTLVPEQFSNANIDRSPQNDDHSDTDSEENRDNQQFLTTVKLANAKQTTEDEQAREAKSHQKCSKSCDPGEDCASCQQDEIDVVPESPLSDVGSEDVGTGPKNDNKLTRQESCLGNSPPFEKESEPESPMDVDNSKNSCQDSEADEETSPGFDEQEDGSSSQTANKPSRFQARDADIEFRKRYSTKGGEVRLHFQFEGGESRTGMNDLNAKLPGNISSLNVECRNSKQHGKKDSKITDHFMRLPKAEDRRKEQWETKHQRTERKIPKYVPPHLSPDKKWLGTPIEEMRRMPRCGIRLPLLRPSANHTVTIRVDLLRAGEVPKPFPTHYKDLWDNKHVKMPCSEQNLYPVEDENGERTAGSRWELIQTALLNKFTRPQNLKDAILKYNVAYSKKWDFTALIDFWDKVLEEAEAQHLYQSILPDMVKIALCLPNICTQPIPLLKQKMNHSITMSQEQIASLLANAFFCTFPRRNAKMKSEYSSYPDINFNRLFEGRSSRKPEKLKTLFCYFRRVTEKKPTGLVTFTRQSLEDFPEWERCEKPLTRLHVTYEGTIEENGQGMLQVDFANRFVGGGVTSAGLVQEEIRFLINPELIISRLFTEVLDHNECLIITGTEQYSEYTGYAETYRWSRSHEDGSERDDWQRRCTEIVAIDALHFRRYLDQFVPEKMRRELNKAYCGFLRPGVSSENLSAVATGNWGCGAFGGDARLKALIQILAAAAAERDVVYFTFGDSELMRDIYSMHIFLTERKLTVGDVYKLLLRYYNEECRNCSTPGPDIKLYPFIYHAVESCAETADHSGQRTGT

| Compound | IC50 (PARG; PARG, TFMU-ADPr substrate) [nM] | IC50 (HCC1806; Homo sapiens, HCC1806, 168 h) [nM] | IC50 (PARG; [1]) [nM] | IC50 (HCC1806) [nM] |
| --- | --- | --- | --- | --- |
| CC1(NS(=O)(=O)c2cc(N3CCN(C(=O)[C@H]4CCN4CCCF)CC3)c3cnc(-c4nnc(C(F)(F)F)s4)n3c2)CC1 [Example 319, (R)-8-(4-(1-(3-fluoropropyl)azetidine-2-carbonyl)piperazin-1-yl)-N-(1-methylcyclopropyl)-3-(5-(trifluoromethyl)-1,3,4-thiadiazol-2-yl)imidazo[1,5-a]pyridine-6-sulfonamide] | 5.62 | 147 |  |  |
| CC1(NS(=O)(=O)c2cc(N3CCN(C(=O)C4CCO4)CC3)c3cnc(-c4nnc(C(F)(F)F)s4)n3c2)CC1 (centres unmarked) [Example 304, N-(1-methylcyclopropyl)-8-(4-(oxetane-2-carbonyl)piperazin-1-yl)-3-(5-(trifluoromethyl)-1,3,4-thiadiazol-2-yl)imidazo[1,5-a]pyridine-6-sulfonamide] | 3.86 | 70 |  |  |
| N#CC1(NS(=O)(=O)c2cc(C3=CCN(S(=O)(=O)C4CC4)CC3)c3cnc(-c4nnc(C(F)(F)F)s4)n3c2)CC1 [Example 369, N-(1-cyanocyclopropyl)-8-(1-(cyclopropylsulfonyl)-1,2,3,6-tetrahydropyridin-4-yl)-3-(5-(trifluoromethyl)-1,3,4-thiadiazol-2-yl)imidazo[1,5-a]pyridine-6-sulfonamide] | 1.91 | 505 |  |  |
| CC(C)C(=O)N1CCN(c2cc(S(=O)(=O)NC3CC3)cn3c(-c4nnc(C(F)(F)F)s4)nc(Cl)c23)CC1 [Example 121, 1-chloro-N-cyclopropyl-8-(4-isobutyrylpiperazin-1-yl)-3-(5-(trifluoromethyl)-1,3,4-thiadiazol-2-yl)imidazo[1,5-a]pyridine-6-sulfonamide] | 60.1 | 2590 | < 100 |  |
| CC(C)OC1(C(=O)N2CCN(c3cc(S(=O)(=O)NC4(C)CC4)cn4c(-c5nnc(C(F)(F)F)s5)ncc34)CC2)CC1 [Example 202, 8-(4-(1-isopropoxycyclopropane-1-carbonyl)piperazin-1-yl)-N-(1-methylcyclopropyl)-3-(5-(trifluoromethyl)-1,3,4-thiadiazol-2-yl)imidazo[1,5-a]pyridine-6-sulfonamide] | 1.16 | 133 |  |  |
| N#CC1(NS(=O)(=O)c2cc(N3CCNC(=O)C3)c3cnc(-c4nnc(C(F)(F)F)s4)n3c2)CC1 [Example 248, N-(1-cyanocyclopropyl)-8-(3-oxopiperazin-1-yl)-3-(5-(trifluoromethyl)-1,3,4-thiadiazol-2-yl)imidazo[1,5-a]pyridine-6-sulfonamide] | 692 | 6440 |  |  |
| Cn1nccc1C1CCC(c2cc(S(=O)(=O)NC3(C#N)CC3)cn3c(-c4nnc(C(F)F)s4)nnc23)C1 (centres unmarked) [Example 378, N-(1-cyanocyclopropyl)-3-(5-(difluoromethyl)-1,3,4-thiadiazol-2-yl)-8-(3-(1-methyl-1H-pyrazol-5-yl)cyclopentyl)-[1,2,4]triazolo[4,3-a]pyridine-6-sulfonamide] | 27.7 | 5000 to 30000 | < 100 | 6000 |
| CC(C)C(=O)N1CCN(c2cc(S(=O)(=O)NC3(C)CC(F)(F)C3)cn3c(-c4nnc(C(F)F)s4)ncc23)CC1 [Example 61, N-(3,3-difluoro-1-methylcyclobutyl)-3-(5-(difluoromethyl)-1,3,4-thiadiazol-2-yl)-8-(4-isobutyrylpiperazin-1-yl)imidazo[1,5-a]pyridine-6-sulfonamide] | 121 | > 30000 | 100 to 500 |  |
| CC1(NS(=O)(=O)c2cc(N3CCN(C(=O)C4(OCCO)CC4)CC3)c3cnc(-c4nnc(C(F)(F)F)s4)n3c2)CC1 [Example 383, 8-(4-(1-(2-hydroxyethoxy)cyclopropane-1-carbonyl)piperazin-1-yl)-N-(1-methylcyclopropyl)-3-(5-(trifluoromethyl)-1,3,4-thiadiazol-2-yl)imidazo[1,5-a]pyridine-6-sulfonamide] | 0.25 | 14.8 |  |  |
| CC1(NS(=O)(=O)c2cc(N3CCN(C(=O)[C@@H]4CCCN4)CC3)c3cnc(-c4nnc(C(F)(F)F)s4)n3c2)CC1 [Example 316, (S)-N-(1-methylcyclopropyl)-8-(4-prolylpiperazin-1-yl)-3-(5-(trifluoromethyl)-1,3,4-thiadiazol-2-yl)imidazo[1,5-a]pyridine-6-sulfonamide] | 4.46 | 918 |  |  |
| C[C@@H]1CN(c2cc(S(=O)(=O)NC3(C#N)CC3)cn3c(-c4nnc(C(F)F)s4)cnc23)CCN1C(=O)C1(C)CC1 [Example 204, (R)-N-(1-cyanocyclopropyl)-3-(5-(difluoromethyl)-1,3,4-thiadiazol-2-yl)-8-(3-methyl-4-(1-methylcyclopropane-1-carbonyl)piperazin-1-yl)imidazo[1,2-a]pyridine-6-sulfonamide] | 36.3 | 360 |  |  |
| O=S(=O)(NC1(CF)COC1)c1cc(N2CCC3(CC2)COC3)c2cnc(-c3nnc(C(F)(F)F)s3)n2c1 [Example 176, N-(3-(fluoromethyl)oxetan-3-yl)-8-(2-oxa-7-azaspiro[3.5]nonan-7-yl)-3-(5-(trifluoromethyl)-1,3,4-thiadiazol-2-yl)imidazo[1,5-a]pyridine-6-sulfonamide] | 4.37 | 1340 |  |  |
| CC1(NS(=O)(=O)c2cc(N3CCN(C(=O)C4(C)CCN4)CC3)c3cnc(-c4nnc(C(F)(F)F)s4)n3c2)CC1 (centres unmarked) [Example 321, 8-(4-(2-methylazetidine-2-carbonyl)piperazin-1-yl)-N-(1-methylcyclopropyl)-3-(5-(trifluoromethyl)-1,3,4-thiadiazol-2-yl)imidazo[1,5-a]pyridine-6-sulfonamide] | 2.93 | 175 |  |  |
| N#CC1(NS(=O)(=O)c2cc(N3CCN(C(=O)C4NCCS4)CC3)c3cnc(-c4nnc(C(F)(F)F)s4)n3c2)CC1 (centres unmarked) [Example 281, N-(1-cyanocyclopropyl)-8-(4-(thiazolidine-2-carbonyl)piperazin-1-yl)-3-(5-(trifluoromethyl)-1,3,4-thiadiazol-2-yl)imidazo[1,5-a]pyridine-6-sulfonamide] | 66.1 | 229 |  |  |
| CC(=O)N1CCN(c2cc(S(=O)(=O)NC3(C#N)CC3)cn3c(-c4nnc(C(F)(F)F)s4)ncc23)C[C@H]1C [Example 216, (R)-8-(4-acetyl-3-methylpiperazin-1-yl)-N-(1-cyanocyclopropyl)-3-(5-(trifluoromethyl)-1,3,4-thiadiazol-2-yl)imidazo[1,5-a]pyridine-6-sulfonamide] | 31.6 | 2340 |  |  |
| CC(C)C(=O)N1CCN(c2cc(S(=O)(=O)NC3(C)COC3)cn3c(-c4nnc(C(F)(F)F)s4)ncc23)C[C@H]1C [Example 174, (R)-8-(4-isobutyryl-3-methylpiperazin-1-yl)-N-(3-methyloxetan-3-yl)-3-(5-(trifluoromethyl)-1,3,4-thiadiazol-2-yl)imidazo[1,5-a]pyridine-6-sulfonamide] | 5.01 | 856 |  |  |
| CC(C)C(=O)N1CCN(c2cc(S(=O)(=O)NC34CC(F)(C3)C4)cn3c(-c4nnc(C(F)F)s4)ncc23)CC1 [Example 59, 3-(5-(difluoromethyl)-1,3,4-thiadiazol-2-yl)-N-(3-fluorobicyclo[1.1.1]pentan-1-yl)-8-(4-isobutyrylpiperazin-1-yl)imidazo[1,5-a]pyridine-6-sulfonamide] |  | > 30000 | > 1000 |  |

— US20260258035A1, “FIVE-MEMBERED AND SIX-MEMBERED NITROGEN-CONTAINING COMPOUND, AND INTERMEDIATE, PREPARATION METHOD AND USE THEREOF” (HANGZHOU SYNRX THERAPEUTICS BIOMEDICAL TECHNOLOGY CO., LTD., priority 2022, published 2026)
